Results from patent US9273057B2 (Bristol-Myers Squibb Company, priority 2012, dated 2016).

Molecular target: CK2A1 (CK2α/β) (Homo sapiens, UniProt P68400)
Assay: CK2 kinase assay, CK2A1 (CK2α/β)
Format: biochemical
Conditions: Table A; read-out: CK2A1 (CK2α/β) (IC50)

CK2A1 (CK2α/β), sequence (P68400 whole entry, species assumed): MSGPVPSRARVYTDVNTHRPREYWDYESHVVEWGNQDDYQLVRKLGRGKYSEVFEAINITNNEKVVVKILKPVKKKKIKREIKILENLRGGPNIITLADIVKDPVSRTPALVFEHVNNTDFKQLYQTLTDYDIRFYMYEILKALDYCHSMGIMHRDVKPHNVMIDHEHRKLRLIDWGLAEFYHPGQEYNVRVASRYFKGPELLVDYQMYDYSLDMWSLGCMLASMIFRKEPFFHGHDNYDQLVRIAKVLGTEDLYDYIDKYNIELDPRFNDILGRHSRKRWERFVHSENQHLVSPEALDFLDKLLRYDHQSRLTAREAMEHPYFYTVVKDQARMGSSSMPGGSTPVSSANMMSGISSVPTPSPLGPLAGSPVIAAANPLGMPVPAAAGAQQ
CK2A1 (CK2α/β), sequence (P67870 whole entry partner, species assumed): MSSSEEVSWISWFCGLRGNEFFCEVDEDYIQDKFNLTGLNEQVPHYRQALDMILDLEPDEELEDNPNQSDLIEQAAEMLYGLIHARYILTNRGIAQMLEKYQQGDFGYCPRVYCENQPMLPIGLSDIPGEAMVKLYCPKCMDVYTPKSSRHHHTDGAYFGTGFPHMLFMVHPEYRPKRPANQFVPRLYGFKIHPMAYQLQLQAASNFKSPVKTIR

CN1CCN2CCN(c3cc(C#N)cc(Nc4nc(NC5CC5)c5ncc(C#N)n5n4)c3Cl)CC2C1=O (racemic) [Example 626, (+/−)-2-((2-chloro-5-cyano-3-(8-methyl-9-oxohexahydro-1H-pyrazino[1,2-a]pyrazin-2(6H)-yl)phenyl)amino)-4-(cyclopropylamino)imidazo[2,1-f][1,2,4]triazine-7-carbonitrile]
IC50: 0.74 nM

CC(=O)OC(C)(C)C(=O)N1CCC(c2cc(C#N)cc(Nc3nc(NC4CC4)c4ncc(C#N)n4n3)c2Cl)CC1 [Example 228, 2-(4-(2-chloro-5-cyano-3-((7-cyano-4-(cyclopropylamino)imidazo[2,1-f][1,2,4]triazin-2-yl)amino)phenyl)-1-piperidinyl)-1,1-dimethyl-2-oxoethyl acetate]
IC50: 0.51 nM

CN1CCC(c2cc(C#N)cc(Nc3nc(NC4CC4)c4ncc(C#N)n4n3)c2Cl)CC1 [Example 209, 2-(2-chloro-5-cyano-3-(1-methylpiperidin-4-yl)phenylamino)-4-(cyclopropylamino)imidazo[1,2,f][1,2,4]triazine-7-carbonitrile]
IC50: 0.56 nM

N#Cc1cc(Nc2nc(NC3CC3)c3ncc(C#N)n3n2)c(Cl)c(N2CCN(NCC(N)=O)CC2)c1 [Example 791, 2-((4-(2-chloro-5-cyano-3-((7-cyano-4-(cyclopropylamino)imidazo[2,1-f][1,2,4]triazin-2-yl)amino)phenyl)piperazin-1-yl)amino)acetamide]
IC50: 1.52 nM

COC(=O)N[C@@H]1CN(c2cc(C#N)cc(Nc3nc(NC4CC4)c4ncc(C#N)n4n3)c2Cl)C[C@@H]1C [Example 293, methyl ((3S,4S)-1-(2-chloro-5-cyano-3-((7-cyano-4-(cyclopropylamino)imidazo[2,1-f][1,2,4]triazin-2-yl)amino)phenyl)-4-methyl-3-pyrrolidinyl)carbamate]
IC50: 1.89 nM

CN1C(C)(C)CC(NC2CCN(c3cc(C#N)cc(Nc4nc(NC5CC5)c5ncc(C#N)n5n4)c3Cl)CC2)CC1(C)C [Example 124, 2-((2-chloro-5-cyano-3-(4-((1,2,2,6,6-pentamethyl-4-piperidinyl)amino)-1-piperidinyl)phenyl)amino)-4-(cyclopropylamino)imidazo [2,1-f][1,2,4]triazine-7-carbonitrile]
IC50: 1.01 nM

CC(CC(C)c1cc(Cl)c(Nc2nc(NC3CC3)c3ncc(C#N)n3n2)cc1C#N)NCC(F)(F)F (stereo not drawn) [Example 732, 2-((2-chloro-5-cyano-4-(4-((2,2,2-trifluoroethyl)amino)pentan-2-yl)phenyl)amino)-4-(cyclopropylamino)imidazo[2,1-f][1,2,4]triazine-7-carbonitrile]
IC50: 25.4 nM

N#Cc1cc(Nc2nc(NC3CC3)c3ncc(C#N)n3n2)c(Cl)c(N2CCN(CC3CCCCO3)CC2)c1 (stereo not drawn) [Example 609, 2-({2-chloro-5-cyano-3-[4-(oxan-2-ylmethyl)piperazin-1-yl]phenyl}amino)-4-(cyclopropylamino)imidazo [2,1-f][1,2,4]triazine-7-carbonitrile]
IC50: 1.39 nM

CCNc1nc(Nc2cc(C#N)cc(N3CC[C@H](NC(=O)OC)[C@H](F)C3)c2Cl)nn2c(C#N)cnc12 [Example 331, methyl ((3R,4S)-1-(2-chloro-5-cyano-3-((7-cyano-4-(ethylamino)imidazo[2,1-f][1,2,4]triazin-2-yl)amino)phenyl)-3-fluoro-4-piperidinyl)carbamate]
IC50: 2.32 nM

N#Cc1cc(Nc2nc(NC3CC3)c3ncc(C#N)n3n2)c(Cl)cc1CCCCN1CCOCC1 [Example 572, 2-((2-chloro-5-cyano-4-(4-morpholinobutyl)phenyl)amino)-4-(cyclopropylamino)imidazo[2,1-f][1,2,4]triazine-7-carbonitrile]
IC50: 0.66 nM

CC(=O)N1CCC(C(F)c2cc(C#N)cc(Nc3nc(NC4CC4)c4ncc(C#N)n4n3)c2Cl)CC1 (stereo not drawn) [Example 663, 2-((3-((1-acetylpiperidin-4-yl)fluoromethyl)-2-chloro-5-cyanophenyl)amino)-4-(cyclopropylamino)imidazo[2,1-f][1,2,4]triazine-7-carbonitrile]
IC50: 0.77 nM

CC1CN(C2CCN(c3cc(C#N)cc(Nc4nc(NC5CC5)c5ncc(C#N)n5n4)c3Cl)CC2)CC(C)O1 (racemic) [Example 109, (+/−) 2-((2-chloro-5-cyano-3-(4-(2,6-dimethyl-4-morpholinyl)-1-piperidinyl)phenyl)amino)-4-(cyclopropylamino)imidazo [2,1-f][1,2,4]triazine-7-carbonitrile]
IC50: 4.09 nM

N#Cc1cnc2c(NC3CC3)nc(Nc3cc(OC(F)F)cc(N4CCN(C5COC5)CC4)c3Cl)nn12 [Example 557, 2-((2-chloro-5-(difluoromethoxy)-3-(4-(oxetan-3-yl)piperazin-1-yl)phenyl)amino)-4-(cyclopropylamino)imidazo[2,1-f][1,2,4]triazine-7-carbonitrile]
IC50: 2.05 nM

CC(C)(O)C1CN(C2CCN(c3cc(C#N)cc(Nc4nc(NC5CC5)c5ncc(C#N)n5n4)c3Cl)CC2)CCO1 (racemic) [Example 148, (+/−) 2-((2-chloro-5-cyano-3-(4-(2-(1-hydroxy-1-mcthylethyl)-4-morpholinyl)-1-piperidinyl)phenyl)amino)-4-(cyclopropylamino)imidazo [2,1-f][1,2,4]triazine-7-carbonitrile]
IC50: 1.03 nM

CN1C[C@H]2C[C@@H]1CN2c1cc(C#N)cc(Nc2nc(NC3CC3)c3ncc(C#N)n3n2)c1Cl [Example 5, 2-((2-chloro-5-cyano-3-((1R,4R)-5-methyl-2,5-diazabicyclo[2.2.1]hept-2-yl)phenyl)amino)-4-(cyclopropylamino)imidazo [2,1-f][1,2,4]triazine-7-carbonitrile]
IC50: 0.44 nM

CCNc1nc(Nc2cc(C#N)cc(N3CC[C@@H](NC(=O)OC)C(=O)C3)c2Cl)nn2c(C#N)cnc12 [Example 740, (R)-methyl (1-(2-chloro-5-cyano-3-((7-cyano-4-(ethylamino)imidazo[2,1-f][1,2,4]triazin-2-yl)amino)phenyl)-3-oxopiperidin-4-yl)carbamate]
IC50: 1.74 nM

COCCC(=O)N1CC(N2CCN(c3cc(C#N)cc(Nc4nc(NC5CC5)c5ncc(C#N)n5n4)c3Cl)CC2)C1 [Example 482, 2-[(2-chloro-5-cyano-3-{4-[1-(3-methoxypropanoyl)azetidin-3-yl]piperazin-1-yl}phenyl)amino]-4-(cyclopropylamino)imidazo[2,1-f][1,2,4]triazine-7-carbonitrile]
IC50: 1.52 nM

CN1CCC2CN(c3cc(C#N)cc(Nc4nc(NC5CC5)c5ncc(C#N)n5n4)c3Cl)CCC21 (stereo not drawn) [Example 443, 2-((2-chloro-5-cyano-3-(1-methylhexahydro-1H-pyrrolo[3,2-c]pyridin-5(6H)-yl)phenyl)amino)-4-(cyclopropylamino)imidazo[2,1-f][1,2,4]triazine-7-carbonitrile]
IC50: 2.93 nM

N#Cc1cc(Nc2nc(NC3CC3)c3ncc(C#N)n3n2)c(Cl)c(C2CCCC(N3CCOCC3)C2)c1 (racemic) [Example 725, (+/−) cis and trans-2-((2-chloro-5-cyano-3-(3-morpholinocyclohexyl)phenyl)amino)-4-(cyclopropylamino)imidazo[2,1-f][1,2,4]triazine-7-carbonitrile]
IC50: 1.39 nM

N#Cc1cnc2c(NC3CC3)nc(Nc3cc(C(F)F)cc(N4CCC(C(=O)NC5COC5)CC4)c3Cl)nn12 [Example 547, 1-(2-chloro-3-((7-cyano-4-(cyclopropylamino)imidazo[2,1-f][1,2,4]triazin-2-yl)amino)-5-(difluoromethyl)phenyl)-N-(oxetan-3-yl)piperidine-4-carboxamide]
IC50: 2.3 nM

CCNc1nc(Nc2cc(C#N)cc(C3CCN(C[C@H](C)O)CC3)c2Cl)nn2c(C#N)cnc12 [Example 214, 2-((2-chloro-5-cyano-3-(1-((2S)-2-hydroxypropyl)-4-piperidinyl)phenyl)amino)-4-(ethylamino)imidazo[2,1-f][1,2,4]triazine-7-carbonitrile]
IC50: 4.55 nM

C[C@@H]1CN(c2cc(C#N)cc(Nc3nc(NC4CC4)c4ncc(C#N)n4n3)c2Cl)C[C@H]1O (racemic) [Example 20, (+/−) 2-((2-chloro-5-cyano-3-((3S,4R)-3-hydroxy-4-methyl-1-pyrrolidinyl)phenyl)amino)-4-(cyclopropylamino)imidazo [2,1-f][1,2,4]triazine-7-carbonitrile]
IC50: 4.9 nM

C[C@@H](O)CN1CC(N2CCN(c3cc(C#N)cc(Nc4nc(NC5CC5)c5ncc(C#N)n5n4)c3Cl)CC2)C1 [Example 588, 2-{[2-chloro-5-cyano-3-(4-{1-[(2R)-2-hydroxypropyl]azetidin-3-yl}piperazin-1-yl)phenyl]amino}-4-(cyclopropylamino)imidazo [2,1-f][1,2,4]triazine-7-carbonitrile]
IC50: 3.08 nM

CC1(O)CN(C2CCN(c3cc(C#N)cc(Nc4nc(NC5CC5)c5ncc(C#N)n5n4)c3Cl)CC2)C1 [Example 111, 2-(2-chloro-5-cyano-3-(4-(3-hydroxy-3-methylazetidin-1-yl)piperidin-1-yl)phenylamino)-4-(cyclopropylamino)imidazo [1,2-f][1,2,4]triazine-7-carbonitrile]
IC50: 0.68 nM

N#Cc1cc(Nc2nc(NC3CC3)c3ncc(C#N)n3n2)c(Cl)c(N2CCN([C@@H]3CS(=O)(=O)C[C@H]3O)CC2)c1 (racemic) [Example 535, rac-2-((2-chloro-5-cyano-3-(4-((3R,4R)-4-hydroxy-1,1-dioxidotetrahydrothiophen-3-yl)piperazin-1-yl)phenyl)amino)-4-(cyclopropylamino)imidazo[2,1-f][1,2,4]triazine-7-carbonitrile]
IC50: 0.91 nM

N#Cc1cc(CN=[N+]=[N-])c(Cl)c(Nc2nc(NC3CC3)c3ncc(C#N)n3n2)c1 [Example 683, 2-((3-(azidomethyl)-2-chloro-5-cyanophenyl)amino)-4-(cyclopropylamino)imidazo[2,1-f][1,2,4]triazine-7-carbonitrile]
IC50: 0.14 nM

CCNc1nc(Nc2cc(C#N)cc(N3CC[C@@H](NC(=O)OC)[C@H](N(C)CC(C)(C)O)C3)c2Cl)nn2c(C#N)cnc12 [Example 770, methyl N-[(3R,4R)-1-(2-chloro-5-cyano-3-{[7-cyano-4-(ethylamino)imidazo[2,1-f][1,2,4]triazin-2-yl]amino}phenyl)-3-[(2-hydroxy-2-methylpropyl)(methyl)amino]piperidin-4-yl] carbamate]
IC50: 9 nM
